Results reported in patent US6355232B1, “Agent for protecting skin and hair moisture” (Takasago International Corporation, priority 1996, dated 2002).

Key:
[1] = Water-barrier function (WBF) test, water-evaporation rate; format: physicochemical; settings: for Water-evaporation rate (mg/hr/cm2): ceramide/CL/CS (40/30/30) dispersed with 10% arginine oleate, 37° C., humidity 40%
Protocol: (§1) A sample solution was prepared, based upon the lamellar liquid crystal (LLC) method of various methods for preparing liposome [Colloids and Surfaces, 69, p.125 (1992)]. Appropriate amounts of the lipid mixture (for example, Ce II (2S,3R)/CL/CS, a weight ratio of 40/30/30, corresponding to the LLC region of the phase diagram) were weighed into a test tube, allowed to stand at 135° C. for 10 minutes, cooled down to room temperature and then appropriate amounts of propylene glycol/glycerol (a weight ration of 1/1) were added to the mixture. These samples were left at 135° C. for 10 minutes and then shaken vigorously. This procedure was repeated three times. Then, oleic acid and an aqueous solution of L-arginine were added in turn and shaken (80 to 90° C.). The LLC gel thus obtained was diluted with a buffer of pH 6.86 to give a vesicle solution of a uniform mixture of ceramides.
A sample solution was coated over a supporting membrane covered with a protein at the surface and left under vacuum overnight to remove water thoroughly. The membrane was fixed in the stainless dish containing 20 ml of water and allowed to stand at 37° C. and a humidity of 40%. The evaporated water was calculated per time unit and area unit to determine the water-evaporation rate of WBF.
All samples tested as shown in Table 4 were mixtures of ceramide/CL/CS (40/30/30) and dispersed with 10% arginine oleate.
All samples tested as shown in Table 5 were mixtures of ceramide/CL/CS (40/30/30) and dispersed with 10% arginine oleate.

[2] = system: forearm treated with chloroform/methanol (damaged skin); test: Transepidermal water-loss (TEWL) test; format: in vivo, human; settings: for TEWL (g/m^2/hr): ceramide/CL/SSL (50/20/30) dispersed with 10% arginine oleate, forearm, twice per day for 2 days, data after 10 hours
Protocol: The forearm was treated with chloroform/methanol (1/1), each sample was coated on the site and TEWL was determined (n=4, twice per day, used for 2 days).
All tested samples were the (2S,3R) type and the (2S,3S) type and were mixtures of ceramide/CL/SSL (=sodium stearyllactate) (50/20/30). They were dispersed with 10% arginine oleate.

[3] = Test on conditioner effect to hair (WHC); settings: ceramide/CL/SA (40/20/40) dispersed with 10% arginine oleate, 35° C., humidity 70% overnight
Protocol: Hairs were treated with chloroform/methanol (2/1) and bundles of hairs were coated with samples, rinsed away and then dried under vacuum overnight. They were left at 35° C. and a humidity of 70% overnight. They were weighed to determine the hydrated amount to the dried hairs as WHC.
All tested samples were the (2S,3R) type and the (2S,3S) type and were mixtures of ceramide/CL/SA (=stearic acid) (40/20/40). They were dispersed with 10% arginine oleate.

[4] = Solubility in cosmetic solvents; format: physicochemical
Protocol: Solubilities of ceramide-II (hereinafter referred to as CeII) of (2S,3R) type and ceramides of other optical isomers were studied. Ethanol, isopreneglycol, propylenglycol, glycerol, oleic acid, ethyl oleate and isopropyl myristate were used as the cosmetic solvents. Each sample was heated up to about 90° C. with vigorous shaking and cooled down to room temperature and then observed visually. 1.

[5] = Water-holding capacity (WHC) test of sample solution; format: physicochemical
Protocol: as §1
A sample solution was applied to a small petri dish and left at 37° C. and a humidity of 40%. The water evaporated as the time lapsed was measured and the ratio of the water remaining in the sample was calculated from the measured value to study WHC.
The samples tested as shown in Table 2 were all mixtures of ceramide/CL/CS (40/30/30) and dispersed with 10% arginine oleate. A control was an aqueous solution of propyleneglycol/glycerol (1/1). […]

melting point | solubility in cosmetic solvents ([4]; compared among Ce II isomers) | level dissolved in ethanol ([4]; ethanol) | Compound | Water-evaporation rate (mg/hr/cm2) ([1]; Table 5) | TEWL (g/m^2/hr) [2] | Water-holding capacity (%) [3] | TEWL improvement ([2]; compared with uncoated sites / non-treated normal skin) | Water-evaporation rate (mg/hr/cm2) ([1]; Table 4) | capacity to restrain the water evaporation ([1]; versus other types) | Water-holding capacity (%) (After 5 hours) ([5]; ceramide/CL/CS (40/30/30) dispersed with 10% arginine oleate, 37° C., humidity 40%, after 5 hours) | water-holding capacity compared ([5]; versus the racemates, the SP ceramide, etc.)
 |  |  | CCCCCCCCCCCCCCCCCC(=O)N[C@H](CO)[C@@H](O)CCCCCCCCCCCCCCC [(2R,3S), erythro (2R, 3S) type of ceramide-II, reference compound] | 2.9 mg/hr/cm2 |  |  |  |  |  |  | 
101 °C |  |  | CCCCCCCCCCCCCCCCCC(=O)N[C@@H](CO)[C@@H](O)CCCCCCCCCCCCCCC [(2S,3S), threo (2S, 3S) type of ceramide-II] | 3.6 mg/hr/cm2 | 4.1 g/m^2/hr |  |  |  |  |  | 
95 to 96 °C | lowest solubility | 0.1% | CCCCCCCCCCCCCCCCCC(=O)N[C@@H](CO)[C@H](O)CCCCCCCCCCCCCCC [(2S,3R), ceramide-II of erythro (2S,3R) type] | 2.5 mg/hr/cm2 | 2.8 g/m^2/hr | 8.2% | can recover to the TEWL value of the non-treated normal skin more rapidly | 2.5 mg/hr/cm2 | more superior to other types | 22.4% | significantly higher water-holding capacity
